Where only a bound is given, the exact number is not on record here.

Data set [1] can be described thus: Inhibition of recombinant CaMK2 expressed in Sf9cells using autocamtide-2/CAM as substrate after 90 mins. The settings on record: sf9.
The nature of data set [2]: Solubility of the compound in water at pH 7.4. Format: physicochemical.
Data set [3] can be described thus: Selectivity ratio of IC50 for Akt1 to IC50 for recombinant CaMK2.
The nature of data set [4]: Selectivity ratio of IC50 for p38alpha to IC50 for recombinant CaMK2.
The nature of data set [5]: Selectivity ratio of IC50 for PKCgamma to IC50 for recombinant CaMK2.
Data set [6] is described as follows: Selectivity ratio of IC50 for MLCK to IC50 for recombinant CaMK2.

On to `O=C(c1ccc(Oc2ccccc2)cc1)c1cc2c(Cl)c(O)ccc2[nH]1`, for which the half-inhibitory concentration (IC50) (commonly the concentration needed to halve the response being measured) in data set [1] amounted to 640 nM.
`O=C(c1ccc(Oc2ccccc2)cc1)c1cc2c(Br)c(O)ccc2[nH]1`: in data set [2], the solubility (commonly the concentration that dissolves in the medium under given conditions) was under 1 µg/mL. Further, the Ratio IC50 was 1500 in data set [3], 115 in data set [4], 550 in data set [5] and 12 in data set [6]. Also, the IC50 in data set [1] worked out at 40 nM.
Consider `O=C(c1ccc(Oc2ccccc2)cc1)c1cc2c(OCCN3CCC(O)CC3)cccc2[nH]1`, for which the IC50 in data set [1] was found to be 420 nM.
In the case of `O=C(c1ccc(Oc2ccccc2)cc1)c1cc2cc(O)ccc2[nH]1`, the Ratio IC50 was 295 in data set [3], under 1 in data set [4], 93 in data set [5] and under 1 in data set [6]. The half-inhibitory concentration (IC50) in data set [1] came to 610 nM.
For the compound `O=C(c1ccc(Oc2ccccc2)cc1)c1cc2c(OCCN3CCCCC3)cccc2[nH]1`, in data set [1], the half-maximal inhibitory concentration (IC50) is 820 nM.
As to `O=C(c1ccc(Oc2ccccc2)cc1)c1cc2c(Cl)c(O)c(Cl)cc2[nH]1`, the solubility in data set [2] is under 1 µg/mL. In addition, in data set [1], the IC50 came out at 61 nM.
For the compound `NCCOc1cccc2[nH]c(C(=O)c3ccc(Oc4ccccc4)cc3)cc12`, the IC50 in data set [1] is 2600 nM.
On the same count and under the same terms, the value for `O=C(c1ccc(Oc2ccccc2)cc1)c1cc2c(OCCCN3CCCCC3)cccc2[nH]1` was 800 nM.
Same read-out and setting: the value for `COc1ccc2[nH]c(C(=O)c3ccc(Oc4ccccc4)cc3)cc2c1` was over 10000 nM; that for `CCNCCOc1ccc2[nH]c(C(=O)c3ccc(Oc4ccccc4)cc3)cc2c1` was 1500 nM.
Still for that read-out and setting: the figure for `Cc1c(O)ccc2[nH]c(C(=O)c3ccc(Oc4ccccc4)cc3)cc12` is 1300 nM.
In data set [2], `O=C(c1ccc(Oc2ccccc2)cc1)c1cc2c(Br)c(O)c(Br)cc2[nH]1` had a solubility of under 1 µg/mL. The Ratio IC50 in data set [3] was over 5000; in data set [4], 450; in data set [5], 1250; in data set [6] it was 63. Also, the IC50 in data set [1] was determined as 12 nM.
Turning to `O=C(O)COc1ccc2[nH]c(C(=O)c3ccc(Oc4ccccc4)cc3)cc2c1`, the IC50 in data set [1] worked out at 510 nM.
With `CCNCCOc1cccc2[nH]c(C(=O)c3ccc(Oc4ccccc4)cc3)cc12`, the IC50 in data set [1] was found to be 1100 nM.
On the same count and under the same terms, the figure for `O=C(c1ccc(Oc2ccccc2)cc1)c1cc2c(OCCN3CCNCC3)cccc2[nH]1` is 270 nM; for `CC(C)(Oc1ccc2[nH]c(C(=O)c3ccc(Oc4ccccc4)cc3)cc2c1)C(=O)O` it is 1500 nM.

These data come from ChEMBL document CHEMBL2203284, “Synthesis and structure based optimization of 2-(4-phenoxybenzoyl)-5-hydroxyindole as a novel CaMKII inhibitor” (Bioorg Med Chem, 2012).
